We go through four compounds from patent US20260242359A1, “IRHOM2 INHIBITORS AND USES THEREOF” (NEW YORK SOCIETY FOR THE RELIEF OF THE RUPTURED AND …, priority 2023, published 2026).

Assay [1] relates to TNFα release from LPS-stimulated THP-1 cells (iRhom2/ADAM17-dependent). Description: Primary screen (Example 1b): LPS-stimulated TNFα release from THP-1 cells, HTRF. The assay is classed as cell-based. To be noted: Homo sapiens, overnight pre-incubation, LPS 100 ng/mL, 3 h, normalized against 10 μM Batimastat. On the procedure: Two separate screens to identify novel small molecule inhibitors of iRhom2/ADAM17 activity were developed. […] Therefore, the primary screen for small molecule inhibitors of iRhom2/ADAM17 was a screen for inhibitors that blocked the release of TNFα from LPS-stimulated THP-1 human myeloid cells, a process that depends on iRhom2 and ADAM17. Since the release of TNFα from THP-1 cells can be blocked at many stages of the LPS/TLR4/iRhom2/ADAM17 pathway, a secondary screen was performed for another iRhom2/ADAM17 selective substrate, Kit-ligand 2 (KL-2) (Maretzky T et al. (July 2013), “iRhom2 controls the substrate selectivity of stimulated ADAM17-dependent ectodomain shedding”, PNAS 110(28): 11433-11438) in a different human cell type, human embryonic kidney cells (HEK 293).
THP-1 cells were plated in low volume 384 wells (10,000 cells per well in 12.6 μL RPMI medium) together with inhibitors or 10 μM BB94 and incubated over night. The next day, TNFα shedding was initiated by stimulation of THP-1 cells with 100 ng/mL LPS (1.8 μL of an 800 ng/mL LPS stock) for 3 hrs at 37° C. The extent of released TNFα was detected with the corresponding HTRF antibodies labeled with europium cryptate (donor) and d2 (acceptor). The HTRF signal was generated by proximity of europium cryptate and d2. All detection reagents were purchased from Cisbio. TNFα detection was performed according to the manufacturer's protocol (Product Insert for Cisbio TNFα (h) Kit Part #62HTNFAPEG & 62HTNFAPEH; https://www.cisbio.com/media/asset/c/i/cisbio_dd_pi_62htnfapeg-62htnfapeh.pdf, accessed Sep. 28, 2020).
Low volume 384 well plates were pre-coated with small molecule library compounds for a final concentration of 20 μM in a 15 μL reaction, or 0.75 μL of 200 μM stock of BB94 in 5% DMSO (final concentration 0.25%). 12.6 μL of cell suspension [8E5/mL; 10,000 cells/well; culture RPMI medium] and pre-incubated at 37° C., 5% CO2, over night. The next day, 1.8 μL of an 800 ng/mL LPS stock was added [final concentration 100 ng/mL in 15 μL assay] and the cells were incubated at 37° C., 5% CO2, for 3 h. Subsequently, 3 μL of the HTRF-mix [used at 1:3 dilution of cisbio HTRF human TNF] was added and the plates were incubated for an additional 2 hrs at 25° C. After an incubation at room temperature for 2 h, the HTRF readout was performed. Then data evaluation for normalization against the 10 μM Batimastat control (=100% […]) was applied.

Assay [2] has as its system PMA-stimulated TGFα release from HEK-293 cells (substrate of iRhom1/ADAM17 and iRhom2/ADAM17). Description: Counter screen (Example 4b): PMA-stimulated TGFα release from HEK-293 cells, AP readout. The format is cell-based. Conditions: Homo sapiens, HEK293, HEK-293 cells expressing TGFα-AP, PMA 100 ng/mL, 2 h. On the procedure: A tertiary counterscreen was also performed to monitor the release of TGFα, which is a substrate of iRhom1/ADAM17 and iRhom2/ADAM17, so its release should not be blocked by an iRhom2-selective inhibitor (Maretzky T et al. (July 2013), “iRhom2 controls the substrate selectivity of stimulated ADAM117-dependent ectodomain shedding”, PNAS 110(28): 11433-11438; and Li X et al. (May 2015), “iRhoms 1 and 2 are essential upstream regulators of ADAM17-dependent EGFR signaling”, PNAS 112(19): 6080-6085).
Expression plasmids for alkaline phosphatase (AP)-fused human KL2 and TGFα had been previously designed and generated through gene synthesis followed by subcloning into the pcDNA3.1(+)/Hygro expression vector. […] Subsequently, DNA amplifications were performed to obtain sufficient amounts of the expression vectors. The quality of DNA and gene sequences were confirmed through restriction digest and Sanger sequencing. In parallel, cell culture of HEK-293 cells was initiated. Master and working cell banks were prepared, scaled up and transfected with the respective constructs by electroporation. During cell culturing, cell density and viability were monitored to ensure optimal conditions for the transfections. After PMA stimulation, AP-coupled KL2 or TGFα were detected by measurement of AP activity in the supernatant.
After electroporation, cells were further cultured in presence of selection antibiotics, hygromycin B, to generate stably transfected polyclonal cell pools. For both assays, KL2 and TGFα shedding, the respective selected pool turned out to be suitable. Final assay conditions were determined for the selected pools. For all experiments, batimastat (BB94, 10 μM) was used as positive control for full inhibition of KL2 or TGFα shedding.
The wells of sterile 384-well flat bottom clear plates for TGF-AP assays were coated with 10 μL of 0.1 mg/mL poly-d-lysine for 3-4 hr at 25° C. or overnight at 4° C., then washed 2× with PBS and patted dry. 60 μL of cells (20,000/well) were added to the sterile 384-well plate and incubated in Optimem (with 2% FCS and 1% Pen-strep) overnight at 37° C. (5% CO2). After incubation overnight, 55 μL medium were removed with a BioTek EL406 and 10 μL of prediluted compounds were added to the cells for a final concentration of 20 μM. After incubation for 15 min, 15 μL of PMA (100 ng/mL final conc.) were added. The cells were incubated for 2 h at 37° C. (5% CO2). Then, the plates were centrifuged for 5 min at 1000 rpm and 12 μL of the supernatant was transferred to a fresh 384 well plate. 12 μL of pNPP p-nitrophenyl phosphate (final 1 M pNPP) was added. AP reaction was performed for 1 h at 37° C. The reaction was stopped by addition of 12 μL of NaOH (1 M final conc.), the plates were centrifuged to remove air bubbles and the absorbance of pNP was measured at 405 nm.
(The purpose of a counterscreen is to sort out artefacts and off-target activity.)

As a reminder, the IC50 is the concentration that inhibits the measured activity by half. As to `O=C(c1c(Cl)cccc1Cl)N1CCC(Cc2ccc(F)cc2)CC1` [Compound 3], the results for the IC50 in assay [1] and in assay [2] were under 0.0625 µM and over 40 µM, respectively.
The matching figures for `Cc1c(C(=O)NCc2cccs2)sc(=O)n1Cc1ccccc1` [Compound 4]: 7.57 µM and over 40 µM.
The matching figures for `Cc1c(C(=O)NCc2cccs2)sc(=O)n1Cc1ccccc1F` [Compound 5]: 5.21 µM and over 40 µM.
The matching figures for `Cc1c(C(=O)NCc2ccco2)sc(=O)n1Cc1ccccc1F` [Compound 7]: 3.93 µM and over 40 µM.
